Test results published in patent publication US4680286A, “Use of selenium-containing compounds for negating the toxic effects of gold compounds used in the treatment of rheumatoid arthritis, and a novel selenium-containing gold compound and use thereof as an anti-rheumatoid arthritis medicine” (priority 1985, dated 1987).

Columns and labels:
[1] = tested on: toxic effects of Na3 Au(S2 O3)2.2H2 O; assay: Gold toxicity in mice given sodium selenite prior to (drinking water) or after (injection) the gold compound; format: in vivo; conditions: gold at or slightly exceeding reported LD50, vs gold-only control
Procedure: (§1) A number of experiments in which sodium selenite was given to mice both prior to and after treatment with a gold compound were conducted. In the first series of experiments in which the selenium compound was administered prior to the gold injection, mice were given sodium selenite in their drinking water over an extended period of time. Periodically, the mice were sacrificed and the kidney and liver were analyzed to monitor the accumulation of selenium. When observed selenium levels in the liver were on the order of 5 ppm, the remaining animals were given the gold compound at levels slightly exceeding the reported LD50 value.
In the second series of experiments, in which sodium selenite were injected after the gold injection, the mice were given dosages of gold compounds at the reported LD50 value and were then injected with sodium selenite. In both series of experiments, a control group which received the gold compound but no selenium compound was maintained. […] In all cases, the gold was administered as Na3 Au(S2 O3)2.2H2 O.

[2] = Accumulation of selenium in tissue of mice; format: in vivo; conditions: sodium selenite in drinking water over an extended period, level at which gold was given
Procedure: as §1
In these experiments, large groups of mice were fed other type selenium compounds, which were sodium selenate, selenium yeast and selenocystine. Periodically, one would be sacrificed and the selenium concentration of the kidney and liver would be determined. When above 5 to about 7 ppm selenium concentrations were obtained, the remaining mice were given injections of Na3 Au(S2 O3)2.2H2 O at the reported LD50 value. A control group that received no dietary selenium was maintained. This control group was given the gold salt at the same time as the selenium accumulated mice. The toxic effects of the gold was then compared in the two groups of mice.

[3] = tested on: cadmium-induced testicular demage; conditions: Kar, Das and Mukerji 1960; cited from earlier work
[4] = tested on: toxicity of mercury, silver and thallium; conditions: observed by other researchers; cited from earlier work

Compound | toxic effects compared with mice which received only the gold treatment [1] | observed selenium levels in the liver [2] | protection against cadmium-induced testicular damage [3] | protection against the toxicity of mercury, silver and thallium [4]
O=[Se](O)O [sodium selenite] | markedly reduced toxic effects | ~5 ppm | – | –
[Se] [selenium] | – | – | prevents cadmium-induced testicular demage | Protection effects
